Measured values published in patent US6699834B1, “Method for treating cancer” (University of Maryland Biotechnology Institute, priority 1997, dated 2004).
Bridge positions count the residues as written; N and C are the ends. Ends that are not written are not given here.

Experiments:
[1] = test system: hematopoietic progenitor cells; test: Hematopoietic progenitor clonogenic assays (CFU-GEMM, BFU-e, CFU-GM); format: cell-based, human; conditions: for Pro-hematopoiesis in vitro Enhancement: relative increase of hematopoietic colony cell number, hCG preparations 200 IU/ml, subunits and peptides 100 μg/ml
Method: The effect of hCG preparations and peptides was assayed on hematopoietic progenitor cells in vitro: Hematopoietic progenitor cells (2×10^5 cell/ml) were isolated from normal bone marrow and cord blood and seeded in methylcellulose. […] The hCG preparations were administered at 200 IU/ml and the β- and α-subunits and peptides were administered at 100 μg/ml. The native commercial preparation of hCG (APL™, Wyeth Ayerst) was pre-tested for anti-HIV and anti-KS activities. Aggregates containing more than 50 cells after 10 days of culture were counted as colonies.

[2] = test system: Kaposi's Sarcoma induced in mice; test: Kaposi's Sarcoma tumors induced in mice by KS Y-1 cells; format: in vivo; conditions: for effect on KS tumors in mice (in words): mouse, in vivo; for KS in vivo: inhibition of Kaposi's Sarcoma induced in mice
Method: The effects of the peptides on KS tumor cells were also evaluated in vivo in the KS mouse model. To induce KS tumors in the mice, 1×10^6/ml KS Y-1 cells in 50 μl PBS or saline were injected subcutaneously into immunodeficient mice (beige-XID-BNX mice). […] Methods for detection of apoptosis (from tissue biopsies) were used, as described in Lunardi-Iskandar et al.(1995, Nature 375:64-68). Briefly, the samples were stained in situ for the presence of cells with DNA fragmentation. Tissue slides from formalin-fixed tumors were treated with terminal deoxynucleotide transferase for extension of DNA ends (hydroxyl 3′) and incorporation of digoxigenin-11-dUTP according to the manufacturer's instructions (Oncor, Gaithersburg, Md.). Anti-digoxigenin antibody conjugated with the enzyme peroxidase allowed detection of apoptotic cells, which stain brown, whereas viable cells stain blue.
Certain fractions were tested for activity in reducing Kaposi's Sarcoma lesions in the Kaposi's Sarcoma mouse model as described herein. In this assay, starting one week after injection of the KS Y-1 cells to induce Kaposi's sarcoma formation, the mice were injected subcutaneously with 100 IU hCG. […] After one week of the week of treatment with the hCG fractions, the KS lesions were examined for cell apoptosis and regression as described herein.
Certain fractions of the APL™ hCG and early pregnancy urine were assayed for their ability to elicit apoptosis in Kaposi's Sarcoma lesions induced by injection of KS Y-1 cells in mice (n=3 mice for each treatment). The mice were administered 100 μl subcutaneously of the particular fraction each day for one week.

[3] = test system: HIV RNA and protein expression; test: HIV RNA and protein expression in HIV-1 transgenic mice; format: in vivo; conditions: for HIV-1 gene / protein expression in transgenic mice (in words): pups dosed via mother's milk
Source text: The HIV-1 transgenic mice used for this study contain 7.4 kb of foreign DNA, including 5.1 kb of the HIV-1 proviral genome deleted in the gag and pol genes and 2.3 kb of vector (Dickie et al., 1991, Virology 185:109-119). […] In addition, these mice develop severe hyperkeratotic skin lesions with marked expression of gp 120 and nef genes (Kopp et al., 1993, AIDS Res. Hum. Retroviruses 9:267-275; Vasli et al., 1994, AIDS Res. Hum. Retroviruses 10:1241-1250).
Heterozygous transgenic mothers were treated with the hCG preparation subcutaneously twice weekly. Pups received hCG via the mother's milk.
Gene expression was assayed in total RNA extracted from the skin of Tg26 mice with RNAzol. One microgram of RNA was reverse transcribed into cDNA using random hexamer primers and […] reverse transcriptase (Life Technologies, MD) in a final volume of 30 μl. One tenth of the cDNA reactions were used for PCR amplification of various HIV gene sequences (env, tat, rev, nef and vif). In addition, glyceraldehyde 3-phosphate dehydrogenase (GAPHD) mRNA was amplified for each sample for normalization. Following 25 cycles of amplification, 10% of the PCR product was resolved by electrophoresis through 2% agarose gels and processed for Southern hybridization using FITC-labeled oligonucleotide probes complimentary to internal sequences of the amplicons. Detection was performed by chemiluminescence (Amersham) and relative mRNA levels determined by densitometry after normalization with GAPDH mRNA levels.
Finally, certain fractions were tested for their ability to increase survival, promote weight gain and reduce HIV-1 gene expression in HIV-1 transgenic mice as described herein.

HIV-1 = conditions: for HIV in vitro Inhibition: inhibition of HIV-1 replication in vitro (HIV-1 strains and HIV-1 primary isolates)
Source text: To prepare HIV infected cells for the in vitro assay of hCG preparations and β-hCG peptides and derivatives, primary PBMCs, macrophages, and CD4^+ T cells isolated from peripheral blood and the H9 human T cell line, were acutely or chronically infected with 8 different HIV-1 strains: 4 cell line adapted viruses, namely the macrophage tropic Ba-L strain (Gartner et al., 1986, Science 233:215-219) and the CD4^+ T cell tropic MN, RF, and IIIB strains (10^5 TCID50/ml) (Popovic et al., 1984, Science […]; Gallo et al.; 1984, Science 224:500-503); 2 isolates, Ju1083 and G3, from Nigerian AIDS patients passed once in a CD4^+ T cell line (Sub-T1); and 2 primary (“clinical”) isolates from AIDS patients from Trinidad which were never passed in any cell line and were used at a titer of 7.5×10^4TCID50/ml. In all experiments; HIV1 (10^5 TCID50/ml) was added to the cells(10^6 cells/ml) for a 2 hour incubation after which the virus infected cells were washed with 10 ml phosphate buffered saline (PBS) three times to eliminate extra cellular virus. The test inhibitor, i.e. the hCG or β-hCG peptide preparation was then added and the cells were incubated with the test inhibiter for 9 to 10 days with serial sampling. Cultures were assayed for p24 antigen on days 3 to 10.
Peptides of the α- and β-subunits (0.05 to 50 nmoles/ml), native α chain preparation, and various crude preparations of the native hCG heterodimer (0.01 to 1,000 IU) and the native β-hCG subunit (100 to 1,000 μg) were tested for effects on HIV-1 replication in acutely infected cells-by measuring change in viral antigen levels in response to the above noted preparations (FIGS. 4A-D and Table 3).
The fractions were then tested for anti-HIV, anti-KS and pro-hematopoietic activities in vitro. To assay for inhibition of HIV-1 replication in vitro, the HIV-1 […] viral strain was used to infect PBMCs and PM-1 cells (derived from the HUT-78 T-cell lymphoma cell line) at 10^3 TCID50/ml as described in detail herein.

KS Y-1 and KS-SLK cells = test: Kaposi's Sarcoma clonogenic assay in cultured cells; format: cell-based, human; conditions: for KS in vitro: inhibition of Kaposi's Sarcoma cell growth in vitro in cultured cells; for inhibition of KS cell growth in clonogenic assays (in words): KS Y-1 and KS SLK
Method: Briefly, the KS Y-1 cells were obtained from mononuclear cells isolated from pleural effusion of an AIDS patient with KS in the lungs. After the depletion of T lymphocytes, monocytes/macrophages and fibroblasts using monoclonal antibodies against CD2, CD3, CD4, CD8, CD10 and CD14 membrane antigens and baby rabbit complement, the cells were cultured in the absence of exogenous growth factors to select for transformed cells. […] Clonogenic assays were performed by seeding the KS Y-1 or KS-SLK cells in methylcellulose (0.8%, v/v), incubating the cells for 10 days in the presence or absence of the hCC, β-hCG or β-hCG peptide preparations and then counting the number of well-formed colonies of triplicate wells formed after seeding with 5×10^4 cells.
To assay for activity against Kaposi's sarcoma cell growth in vitro, the clonogenic assay described herein was used with the KS Y-1 and KS-SLK cultured Kaposi's Sarcoma cell lines,.

Substance	promotion of hematopoiesis (in words) [1]	effect on KS tumors in mice (in words) [2]	HIV-1 gene / protein expression in transgenic mice (in words) [3]	inhibition of HIV-1 infection/replication in vitro (in words) (HIV-1)	Pro-hematopoiesis in vitro Enhancement [1]	KS in vivo [2]	KS in vitro (KS Y-1 and KS-SLK cells)	inhibition of KS cell growth in clonogenic assays (in words) (KS Y-1 and KS-SLK cells)	inhibition of HIV RNA and protein expression ([3]; inhibition of HIV RNA and protein expression in HIV-1 transgenic mice)	HIV in vitro Inhibition (HIV-1)
47-55: β-hCG amino acids 47-55 (SEQ ID NO:20) (GVLPALPQV)	pro-hematopoietic effect	some anti-KS activity	elicited inhibition	inhibited HIV-1 replication						
35. 1-15: α-hCG amino acids 1-15 (APDVQDCPECTLQEN; UniProt P01215 25-39, looked up, fragment)					− (“−” represents less than 10% effect)	− (“−” represents less than 10% effect)	− (“−” represents less than 10% effect)			
5. 47-57::108-119: β-hCG 47-57 linked at the C-terminus to the N-terminus of 108-119 (SEQ ID NO:32) (GVLPALPQVVCLTCDDPRFQDSS)		significant anti-KS activity		inhibit HIV-1 replication in vitro		+++ (“+++” represents greater than 70% effect)	++ (“++” represents greater than 40% effect)	strongest anti-tumor effects	++ (“++” represents greater than 40% effect)	++ (“++” represents greater than 40% effect)
CVAQPGPQVLLVLC (cysteine pairing not given here) [11. Scrambled 45-57]			some inhibition	inhibitory effect			++ (“++” represents greater than 40% effect)	exhibited activity		++ (“++” represents greater than 40% effect)
Cys-Val-Ala-Gln-Gly-Val-Leu-Pro-Ala-Leu-Pro-Gln-Val-Val-Cys (CVAQGVLPALPQVVC; disulfide 1-15 (inferred)) [12. Scrambled circ. 44-57]			no inhibitory effect		− (“−” represents less than 10% effect)		− (“−” represents less than 10% effect)			− (“−” represents less than 10% effect)
9. 38-57: β-hCG amino acids 38-57 (CPTMTRVLQGVLPALPQVVC; UniProt P0DN86 58-77, looked up, fragment)					− (“−” represents less than 10% effect)	− (“−” represents less than 10% effect)	− (“−” represents less than 10% effect)			− (“−” represents less than 10% effect)
1. 109-119: β-hCG amino acids 109-119 (SEQ ID NO:7) (TCDDPRFQDSS)	directly promoted	some anti-KS activity		inhibit HIV-1 replication in vitro	+ (“+” represents greater than 15% effect)	+ (“+” represents greater than 15% effect)	+ (“+” represents greater than 15% effect)	strongest anti-tumor effects		+ (“+” represents greater than 15% effect)
2. 109-145: β-hCG amino acids 109-145 (SEQ ID NO:25) (TCDDPRFQDSSSSKAPPPSLPSPSRLPGPSDTPILPQ)		some anti-KS activity		inhibited HIV-1 replication	+ (“+” represents greater than 15% effect)	+ (“+” represents greater than 15% effect)	+ (“+” represents greater than 15% effect)	strongest anti-tumor effects		+ (“+” represents greater than 15% effect)
